Structures can show the parent of a compound that is named as a salt.
System: histamine production in RAW 264.7 cells (macrophages)
Test: Histamine content in macrophages stressed with CGRP
Format: cell-based
Details: RAW 264.7, 50 μg/ml 2 h, then 10 nM CGRP 16 h; reduction compared with that of the extract
Description: To determine whether the plant cell culture extract according to the invention was able to reduce the production of histamine induced by the CGRP peptide in the immune system cells, an assay was conducted for the quantization of the histamine content in macrophages subjected to a stress condition by the CGRP neuropeptide.
RAW 264.7 cells were seeded in 96-well plates in an initial number of 5×10^4, and after 16 h, they were treated with different doses of the extract or with the anti-histamine compound cetirizine dihydrochloride (50 μg/ml), used as a positive control of the experiment. After 2 h of treatment with the extract or with cetirizine, the production of histamine was induced by the treatment with 10 nM of CGRP and, after 16 h, the amount of histamine was measured by adding 100 μl of methanol containing 0.4 M NaOH and 1 mg/ml of o-Phthaldialdehyde (OPT). After 10 minutes of incubation at room temperature, 50 μl of 0.1M HCl was added to each well to stop the reaction. Fluorescence was measured at 443 nm using a 360 nm excitation wavelength from the multi-plate reader, Victor3 (Perkin Elmer). The histamine content was calculated as a percentage of the value of the control cells stressed with 10 nM CGRP, arbitrarily set as 100%.

For `O=C(O)COCCN1CCN(C(c2ccccc2)c2ccc(Cl)cc2)CC1` (stereo not shown) [cetirizine, cetirizine dihydrochloride], the “production of histamine in macrophages, positive control” value was “similarly”.

Source: patent publication US20220088100A1, “COSMETIC, PHARMACEUTICAL AND NUTRACEUTICAL USE OF AN EXTRACT DERIVED FROM CANNABISSATIVA CELL CULTURES” (ARTERRA BIOSCIENCE S.P.A., priority 2018, published 2022)
